Data on four compounds can be found in patent US9765329B2, “Adipocyte-targeting non-viral gene delivery system” (INDUSTRY-UNIVERSITY COOPERATION FOUNDATION HANYANG …, priority 2013, dated 2017).

Entries after “also recorded” stand apart in the source; their conditions may differ. Square brackets hold non-standard residues; d marks the D form. Ends that are not written are not given here. Peptide text beside a SMILES is read from it. Where only a bound is given, the exact number is not on record here.

The test system of series [1] is diet-induced obesity (DIO) mice. Put plainly: In vivo fat homing (pCLE, Cellvizio). The settings on record: FITC-conjugated peptide, tail vein injection, obese mice. The method, then: C57BL/6J mice at 3 weeks of age were purchased from Central Lab Animal Inc. (Korea). For the first two weeks, the mice were fed 50% normal diet and 50% rodent diet with 60 kcal % from fat. […] The mice became obese after week 14 (body weight>45 g).
FITC conjugated ATS-9R (10 mg/ml) and FITC-9R (10 mg/ml) were diluted in PBS to a final concentration of 1.5 mg/ml and 100 μl of peptide was injected into obese mice by tail vein injection. Immediately after injection, peptide localization in vasculatures of different organs was observed by Cellvizio (Mauna Kea Technologies, France).
In this example, in vivo experiments were conducted using diet-induced obesity (DIO) mice. FITC-ATS-R9 was administered to the obese mice by tail vein injection to observe the targeting of the ATS-R9 to adipose tissue. Tracking was visualized using probe-based confocal laser endomicroscopy (pCLE, Cellvizio).

Another series deals with T1, prohibitin (Mus musculus, UniProt P67778).
T1 construct: endogenous in cells; host or cells: 3T3-L1 preadipocytes and differentiated mature adipocytes (day 10)
T1 sequence (P67778 1-272): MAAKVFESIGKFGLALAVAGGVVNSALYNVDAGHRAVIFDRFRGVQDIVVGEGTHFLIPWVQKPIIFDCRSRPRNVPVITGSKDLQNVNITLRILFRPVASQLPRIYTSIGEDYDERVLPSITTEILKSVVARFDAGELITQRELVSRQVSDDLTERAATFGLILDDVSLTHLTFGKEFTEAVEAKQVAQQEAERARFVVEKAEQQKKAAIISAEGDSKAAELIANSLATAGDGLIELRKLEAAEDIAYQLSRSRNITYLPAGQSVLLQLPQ
Put plainly: Binding of ATS to prohibitin (immunoprecipitation assay). The method, then: (§1) To investigate the location and amount of prohibitin expressed depending on the degree of adipocyte differentiation, two types of adipocytes were treated with rhodamine B-labeled ATS (RhoB-ATS).
(§2) Binding of ATS to prohibitin was determined by an immunoprecipitation assay (FIG. 5a) and the distributions of prohibitin in 3T3-L1 preadipocytes and mature adipocytes were confirmed through the staining results (FIGS. 5b and 5c).

For a further series, the system named is 3T3-L1 mature adipocytes. Put plainly: Targeting of rhodamine B-labeled ATS depending on degree of differentiation. The settings on record: RhoB-ATS. It is filed as cell-based. The method, then: as §1, §2
The test system of series [2] is 3T3-L1 preadipocytes. The description is as above. The series is classed as cell-based. As to conditions: RhoB-ATS. The method, then: as §1, §2
A further series concerns C57BL/6J obese mice. Kind of series: In vivo internalization into adipose tissue and gene expression. The method, then:
FITC-conjugated ATS-R9 was administered to C57BL/6J obese mouse by tail vein injection. Rhodamine-conjugated lectin was injected to stain blood vessels.
FITC-conjugated ATS-R9 was injected into C57BL/6J obese mice and fixed adipose tissue sections were incubated with biotin-conjugated anti-FITC antibody. Cy3-conjugated ExtrAvidin was used for signal amplification thereof. Images were observed using a multiphoton confocal laser scanning microscope.
Finally, in vivo gene expression was confirmed. To this end, red fluorescence protein (RFP) expressing plasmid was concentrated by FITC-ATS-R9 and the oligo-peptoplexes were injected into C57BL/6J obese mice. Non-treated mice were used as controls. Images were observed using a multiphoton confocal laser scanning microscope.

Series [3] has as its system 3T3-L1 differentiated adipocytes. Kind of series: Internalization of FITC-ATS-R9 into cells (confocal microscopy). The series is classed as cell-based. The settings on record: FITC-conjugated ATS-R9 25 μg/ml, adipocytes at day 10. How it is done:
(§3) Cellmask Deep Red was purchased from Invitrogen and DAPI-Fluoromount-G was purchased from Southern Biotech. 3T3-L1 preadipocytes, H9c2, and HEK293 cells were grown and differentiated on coverslips placed in 6 well plates.
(§4) After 24 h of seeding, the cells were treated with the FITC conjugated ATS-R9 (25 μg/ml) and incubated in a time-dependent manner that ranged from 15 min to 72 h.
(§5) After incubation, culture media were replaced, and the cells were washed three times with PBS and fixed in 3.7% formaldehyde. The plasma membranes of the cells were stained with Cellmask Deep Red. The cells were washed again with PBS and mounted in the presence of DAPI to stain the nuclei. Images were captured with a Carl Zeiss confocal microscope.
(§6) To monitor the degree of internalization of ATS-R9 into cells, mature adipocytes and preadipocytes were treated with FITC-labeled ATS-R9 (FITC-ATS-R9) and the delivery of the support to the cells was investigated.
3T3-L1 differentiated adipocytes (at day 10) were treated with FITC-conjugated ATS-R9 (25 μg/ml) and incubated for predetermined periods. The plasma membranes of the cells were stained with Cellmask Deep Red and the nuclei were counterstained with DAPI. Blue channel (for DAPI) is depicted as white to show nuclear localization of ATS-R9. Images were captured with a confocal laser scanning microscope. Scale bar: 10 μm.

In series [4] the test system is 3T3-L1 preadipocytes. Described as above. It is filed as cell-based. How it is done: as §3, §4, §5, §6
Series [5] relates to luciferase plasmid DNA (p-β-Luci). Put plainly: Gel retardation assay. The series is classed as physicochemical. As to conditions: charge ratio of ≧3. The method, then: 1 μg of luciferase plasmid DNA (p-β-Luci, Promega (USA)), deionized water, and ATS-R9 (charge ratios: 0.25, 0.5, 1, 3, 5, 7, and 9) were incubated for 30 min at room temperature to construct oligo-peptoplexes. The oligo-peptoplexes were subjected to electrophoresis under 0.5% TBE buffer solution in 0.8% agarose gel for 25 min (100 V). Naked DNA was used as a control. The DNA condensation efficiency of the ATS-R9 was compared with that of branched PEI (25 KDa, Sigma, USA).
The condensation efficacy of ATS-R9 was compared with that of branched PEI (25 kDa).
Oligo-peptoplexes were prepared with luciferase plasmid DNA (p-β-Luci), deionized water, and ATS-R9 or PEI with predetermined charge ratios and incubated for 30 min at room temperature.

A short description of a further series: Serum protection assay. It is filed as in vitro ADME. The settings on record: 50% (vol/vol) mouse serum, 2 h at 37° C., optimum charge ratio. How it is done: Oligo-peptoplexes were prepared at predetermined charge ratios, mouse serum was added to the polyplexes at a final concentration of 50% (vol/vol), and the samples were incubated for 2 h at 37° C.
For the decomplexation of DNA from the polyplexes after serum incubation, heparin in phosphate-buffered saline (pH 7.4, 0.5 mol/l NaCl) was added to the samples in the presence of 0.01 mol/l EDTA and incubated for 1 h. The samples were loaded in 0.8% agarose gel.

Series [6] in a line: Zeta potential and size measurement (DLS). It is filed as physicochemical. The method, then:
5 μg of luciferase plasmid DNA (p-β-Luci), deionized water, and ATS-R9 (charge ratios: 0.5, 1, 3, 5, 7, and 9) were incubated for 30 min at room temperature to construct oligo-peptoplexes. The mean diameters and surface zeta potentials of the oligo-peptoplexes were measured using DLS equipped with a Zetasizer-Nano ZS (Malvern Instruments, UK).

Series [7] is described as follows: In vitro cytotoxicity (MTT) assay. It is filed as cell-based. The settings on record: mouse, 3T3-L1 differentiated adipocytes (day 10); adipocytes at day 10, 48 h after transfection, charge ratio up to 9; read-out: cell viability. The method, then: (§7) Cell viability was measured by MTT [3-(4,5-dimethylthiazol-2-yl)-2,5-diphenyltetrazolium bromide]assay.
(§8) 3T3-L1 differentiated adipocytes were incubated in 24-well plates. The adipocytes (at day 10) were treated with oligo-peptoplexes prepared by luciferase plasmid DNA, plain DMEM medium, and ATS-9R at predetermined charge ratios. PEI polyplexes were used as the control.
(§9) After 48 h of transfection, 50 μl of MTT reagent was added to 500 μl medium in each well and incubated for 3 h at 37° C. The culture media were removed and 500 μl dimethyl sulfoxide (DMSO) was added to each well and incubated for 20 min at room temperature. Absorbance was measured at 570 nm.
(§10) 3T3-L1 differentiated adipocytes at day 10 were transfected with the oligo-peptoplexes. After 48 h of transfection, cell viability was analyzed by MTT assay (n=6).

For series [8], the system named is 3T3-L1 differentiated adipocytes. Kind of series: In vitro cytotoxicity (MTT) assay. It is filed as cell-based. As to conditions: adipocytes at day 10, 48 h after transfection. How it is done: as §7, §8, §9, §10
The test system is the same in series [9]. Kind of series: In vitro transfection efficiency (luciferase assay). The settings on record: charge ratio of 5, mature adipocytes at day 10, 72 h. It is filed as cell-based.
Procedure: A luciferase assay kit was purchased from Promega (USA). A DC protein assay kit and bovine serum albumin standard were purchased from Bio-Rad Laboratories (USA). 3T3-L1 preadipocytes and differentiated adipocytes were seeded in 24 well plates.
Oligo-peptoplexes were prepared by mixing ATS-9R and 2 μg of luciferase plasmid DNA at a charge ratio of 5. R9 and PEI polyplexes were used as controls and prepared at a charge ratio of 5.
The cell lysates were then scraped, harvested, transferred to 1.5 ml microtubes, and centrifuged for 3 min at 13,000 rpm.
The luminescence of the cell lysates was measured on a 96-well plate luminometer (Berthold Detection Systems, Germany) with 20-second integration and expressed as relative luminescence units (RLU)/mg of cell protein. Protein concentration was determined by the DC protein assay kit with bovine serum albumin standard.
Mature adipocytes at day 10 of differentiation were transfected with p-β-Luci by ATS-R9, R9, and PEI at a charge ratio of 5.
To determine an optimum transfection time point, 3T3-L1 differentiated adipocytes were transfected with luciferase plasmid DNA (p-β-Luci) by ATS-R9 and PEI at a charge ratio of 5 at different days of differentiation.
The subject of a further series is Fabp4 gene. Put plainly: fabp4 sh-RNA gene silencing (RT-PCR). It is filed as cell-based. The settings on record: 3T3-L1 mature adipocytes, 2 μg of fabp4 sh-RNA. How it is done:
First, 3T3-L1 mature adipocytes were transfected with 2 μg of fabp4 sh-RNA by ATS-R9, PEI, and lipofectamine and gene silencing efficiency was measured by RT-PCR. GAPDH was used as an endogenous control. As a result, the Fabp4 gene silencing efficiency was 70% or more (FIG. 15).

The test system of the next series is obese adipocytes. Kind of series: Comparison of gene delivery ability (luciferase gene). The series is classed as cell-based. The method, then:
The ability of ATS-R9 to deliver luciferase gene to obese adipocytes was evaluated. PEI and lipofectamine were used as controls.
Gene delivery efficacies before and after adipocyte differentiation were compared.
Luciferase was used as a gene to be delivered and scrambled ATS was used as a fat-targeting sequence. The ability of (scrambled ATS)-R9 to deliver the gene to obese adipocytes was compared to that of ATS-R9.

In the case of “CRRRRRRRRRC (C[dR][dR][dR][dR][dR][dR][dR][dR][dR]C; cysteine pairing not given here) [R9, reference compound]”, in [1], the “aggregation in fat pad vasculatures” value is listed as “aggregation was not observed in the fat vasculatures” and the “binding to fat pad microvessels” value is “no binding”.
On to “CKGGRAKDC (optionally rhodamine B labeled; Synthetic peptide adipocyte targeting sequence) [ATS, used free or rhodamine B-labeled]”, for which, in the series with prohibitin, the “ability to bind to prohibitin” value is “high ability to bind to prohibitin”. The “targeting efficiency / delivery to obese cells after differentiation” value with 3T3-L1 mature adipocytes is given as “effectively delivered; also recorded: very high”. In addition, the “targeting efficiency to adipocytes before differentiation” value in the series on 3T3-L1 preadipocytes [2] was “not significantly high”.
Take “FITC-ATS-R9: FITC conjugated ATS-R9 (CKGGRAKDRRRRRRRRRC), SEQ ID NO: 2 (not fully specified (N-terminus); cysteine pairing not given here; also: FITC conjugated, site not given here)”: the “in vivo RFP gene expression” value with C57BL/6J obese mice (RFP expressing plasmid concentrated by FITC-ATS-R9) was “clearly confirmed”. In the series with C57BL/6J obese mice (anti-FITC antibody, Cy3-ExtrAvidin), the “adipose tissue homing (immunofluorescence assay)” value is recorded as “confirms the induction”.
One may read the viability as a per cent measure of how many cells are alive, often set against a control. Take `C[C@H](NC(=O)[C@H](CCCNC(=N)N)NC(=O)CNC(=O)CNC(=O)[C@H](CCCCN)NC(=O)[C@@H](N)CS)C(=O)N[C@@H](CCCCN)C(=O)N[C@@H](CC(=O)O)C(=O)N[C@@H](CCCNC(=N)N)C(=O)N[C@@H](CCCNC(=N)N)C(=O)N[C@@H](CCCNC(=N)N)C(=O)N[C@@H](CCCNC(=N)N)C(=O)N[C@@H](CCCNC(=N)N)C(=O)N[C@@H](CCCNC(=N)N)C(=O)N[C@@H](CCCNC(=N)N)C(=O)N[C@@H](CCCNC(=N)N)C(=O)N[C@@H](CCCNC(=N)N)C(=O)N[C@@H](CS)C(=O)O` [ATS-R9] (H-CKGGRAKDRRRRRRRRRC-OH; N-terminus and C-terminus assumed): in series [3], the “strong fluorescence signals / steady state maintained” value turned out to be 48 h, the “time to reach the cytoplasm” value is not above 15 min and the “time to reach the nuclei” value is not above 1 h. In addition, the “migration to the nuclei observed after” value in the series with 3T3-L1 preadipocytes [4] is more than 48 h. Moreover, the “DNA condensation (no DNA migration)” value in [5] is “complete DNA condensation”. For the same compound, the “DNA degradation in serum” value in “Serum protection assay” is given as “protected DNA from degradation”. In addition, the “size of condensed DNA complex” value in series [6] (ATS-R9 bound to DNA, neutral conditions) was not above 200 nm. Also, the zeta potential entry in series [6] (charge ratio of ≧1 (description)) is “positive”. Also, the viability at 48 h in series [7] is not below 90%. For the same compound, the “toxicity to differentiated adipocytes” value in [8] is “non-toxicity”. In addition, the “transfection efficiency (luciferase gene expression)” value in series [9] was “higher transfection efficiency and gene expression efficiency than PEI and R9”. Moreover, in series [1], the “aggregation in fat pad vasculatures” value is reported as “aggregated in the fat pad vasculature”; the “aggregation in the other organs (liver, kidney)” value is “no aggregation was observed”; the “binding to fat pad microvessels” value is on record as “bound to the fat pad microvessels”. Further, the “internalization into in vivo adipose tissues” value with C57BL/6J obese mice (tail vein injection, multiphoton confocal microscopy) is “penetrated the blood vessels and was gradually internalized into adipocytes”. Further, the “Fabp4 gene silencing efficiency” value with Fabp4 gene is not below 70%. Moreover, the “gene delivery efficacy as differentiation into obese adipocytes proceeded” value in the series with obese adipocytes (before and after adipocyte differentiation) is reported as “increased”. In the series with obese adipocytes (luciferase gene, PEI and lipofectamine as controls), the “gene delivery efficacy to obese adipocytes” value was “superior to those of the other delivery systems PEI and lipofectamine”.
